Measurements reported in publication PMC10290117, “Molecular mechanism of phosphopeptide neoantigen immunogenicity” (Nature Communications, 2023).

System: TCR27-AKD10R3 cells
Experiment: X-scan (peptide scan), EGFP reporter effector cells
Type: cell-based, murine
Conditions: Fig. 1c source data, HLA B*07, T2 cells pulsed with 25 μg peptide per 1 × 10^6 cells, 2 h, 37 °C, effector cells 2:1 overnight, mean value of triplicate
Protocol: Tap-deficient T2 (174x CEM.T2) HLA-B*0702+ cells were received from Dr. Victor Engelhard. These and the commercially purchased Tap-deficient T2 (174 x CEM.T2) cells (ATCC CRL 1991) were maintained in RPMI 1640 (BioConcept) supplemented with 10% fetal calf serum (FCS, HyClone), 2mM L-glutamine and 1% Penicillin/Streptomycin at 37 °C and 5% CO2. The EGFP reporter cell line was based on a murine TCR negative thymoma cell line derived from strain BW5417 (ATCC®TIB-47TM) and was stably transduced with (a) TCR27 in which the human constant regions were replaced with those of mouse, (b) a chimeric mouse/human CD8, and (c) an EGFP reporter construct linked to a minimal IL-2 promoter comprising three NFAT-binding sites (3xNFAT)[44]. The transduced cells were termed TCR27-AKD10R3 cells and will be called the effector cells. Mouse cell lines were cultured in SF-IMDM (BioConcept) supplemented with 3% FCS, 1% Penicillin/Streptomycin, and 50 μM beta-mercaptoethanol at 37 °C and 10% CO2.
Peptides were dissolved in dimethyl sulfoxide (DMSO) at concentrations of 2–20 mg/mL, aliquoted and stored at −80 °C. Peptide-pulsing experiments were performed by pre-incubating T2 cells with 25 μg peptide per 1 × 10^6 cells in PBS for 2 h at 37 °C and 5% CO2, washed three times to remove unbound peptides and used for further downstream analysis. Peptide-pulsed T2 cells were incubated with effector cells in a 2:1 ratio overnight in SF-IMDM at 37 °C and 10% CO2, washed twice and stained with anti-mouse TCR-® chain clone H57-597 (BD Pharmingen #560656, 1:500) for 30 min at RT. Cells were washed twice before FACS-analysis using a BD FACS Canto II with System software v2.0. Data analysis was performed using FlowJo V10 Software. Binding affinity between each peptide and HLA-B*0702 was determined using an Alpha assay. It is a homogenous, proximity-based assay for detection of peptides binding to HLA class I molecules using a conformation-dependent anti-HLA class I antibody, W6/32, as one tag and a biotinylated recombinant HLA class I molecule as the other tag, and a proximity-based signal was generated through the luminescent oxygen channeling immunoassay technology (PerkinElmer) as described.
To identify the off-target peptides we have utilized an approach that was developed previously. In brief, we investigated which amino acids at each position in pMLL747–755 enable TCR interaction by sequentially replacing every amino acid position outside of the anchor positions 2 and 9 with all 19 alternative amino acids, resulting in 134 peptides (133 altered peptides plus original epitope). Each peptide was individually evaluated using cell-based in vitro cytotoxicity assay. To represent the TCR recognition kernel, we have defined Position Weight Matrices (PWMs) for each assay by assigning normalized measurements to each of the 20 amino acids in each position. To predict potential off-target peptides, we applied an algorithm projecting the PWM-defined kernel into the human proteome, scoring TCR27 recognition for the predicted HLA-B^*0702 binding 9-mer peptides. Of the 11 peptides with highest predicted cross-reactivity scores, we confirmed that only 2, […] and pDOT1L998–1006, strongly activated the TCR27-expressing effector T cells.

Row | Substance | Percentage GFP positive from TCR+ cells [%]
1 | APRsPSHSM [single-residue substitution of pMLL747–755, Pos 1] | 1.5
2 | CPRsPSHSM [single-residue substitution of pMLL747–755, Pos 1] | 1.3
3 | DPRsPSHSM [single-residue substitution of pMLL747–755, Pos 1] | 1.14
4 | EPAsPSHSM [single-residue substitution of pMLL747–755, Pos 3] | 14.3
5 | EPCsPSHSM [single-residue substitution of pMLL747–755, Pos 3] | 9.53
6 | EPDsPSHSM [single-residue substitution of pMLL747–755, Pos 3] | 1.12
7 | EPEsPSHSM [single-residue substitution of pMLL747–755, Pos 3] | 2.7
8 | EPFsPSHSM [single-residue substitution of pMLL747–755, Pos 3] | 1.13
9 | EPGsPSHSM [single-residue substitution of pMLL747–755, Pos 3] | 1.47
10 | EPHsPSHSM [single-residue substitution of pMLL747–755, Pos 3] | 5.91
11 | EPIsPSHSM [single-residue substitution of pMLL747–755, Pos 3] | 1.83
12 | EPKsPSHSM [single-residue substitution of pMLL747–755, Pos 3] | 10.3
13 | EPLsPSHSM [single-residue substitution of pMLL747–755, Pos 3] | 1.35
14 | EPMsPSHSM [single-residue substitution of pMLL747–755, Pos 3] | 1.48
15 | EPNsPSHSM [single-residue substitution of pMLL747–755, Pos 3] | 5
16 | EPPsPSHSM [single-residue substitution of pMLL747–755, Pos 3] | 1

Row | Substance | Percentage GFP positive from TCR+ cells [%]
17 | EPQsPSHSM [single-residue substitution of pMLL747–755, Pos 3] | 1.31
18 | EPRAPSHSM [single-residue substitution of pMLL747–755, Pos 4] | 0.88
19 | EPRCPSHSM [pMLL747–755 with cysteine at Pos 4] | 1.02
20 | EPRDPSHSM [pMLL747–755 with aspartate at P4] | 0.92
21 | EPREPSHSM [pMLL747–755 with glutamate at P4] | 0.77
22 | EPRFPSHSM [single-residue substitution of pMLL747–755, Pos 4] | 0.91
23 | EPRGPSHSM [single-residue substitution of pMLL747–755, Pos 4] | 1.01
24 | EPRHPSHSM [single-residue substitution of pMLL747–755, Pos 4] | 0.9
25 | EPRIPSHSM [single-residue substitution of pMLL747–755, Pos 4] | 0.86
26 | EPRKPSHSM [single-residue substitution of pMLL747–755, Pos 4] | 1.03
27 | EPRLPSHSM [single-residue substitution of pMLL747–755, Pos 4] | 1.21
28 | EPRMPSHSM [single-residue substitution of pMLL747–755, Pos 4] | 1.25
29 | EPRNPSHSM [single-residue substitution of pMLL747–755, Pos 4] | 1.07
30 | EPRPPSHSM [single-residue substitution of pMLL747–755, Pos 4] | 1.21
31 | EPRQPSHSM [single-residue substitution of pMLL747–755, Pos 4] | 1.08
